Reference: US20250195537A1, “PSYCHEDELIC DRUG TREATMENT OF NEUROPSYCHIATRIC DISORDERS AND CEREBRAL PALSY” (priority 2021, published 2025)

How the values were obtained:
[1] = Case reports: patients with depression given ketamine with or without an anxiolytic; type: in vivo, human
[2] = cited from earlier work
[3] = Case report: patient with muscle spasm associated with cerebral palsy given intramuscular ketamine; type: in vivo, human; conditions: intramuscular ketamine 0.2-1.2 mg/kg
[4] = Case report: patient with depression and suicidal ideation given ketamine with or without intranasal oxytocin; type: in vivo, human
[5] = ketamine infusions, benzodiazepine users, Albott et al., 2017

Cc1nnc2n1-c1ccc(Cl)cc1C(c1ccccc1)=NC2 [alprazolam]
improvement in depression ([1]; same patient, 0.5 mg alprazolam before the same dose of ketamine): significant improvement in depression

CNC1(c2ccccc2Cl)CCCCC1=O (centres unmarked) [ketamine]
antidepressant effect of ketamine ([2]; concomitant use of benzodiazepines, Andrashko et al., 2020): dampened the antidepressant effect | time to antidepressant response [2, 5]: significantly longer | time to depression relapse [2, 5]: significantly shorter | antidepressant response to ketamine infusions ([2]; one patient, after their benzodiazepine was withdrawn, Ford et al. (2015)): more robust | muscle spasm after the treatment [3]: reduction in their muscle spasm | improvement in depression or suicidal ideation ([4]; ketamine alone, several times, intramuscular 0.25-1.0 mg/kg): did not experience improvement | therapeutic benefit ([1]; patient with depression, ketamine alone): did not benefit therapeutically | antidepressant effect ([1]; same patient, ketamine without lorazepam, compared to times with lorazepam): reduced antidepressant effect

O=C1Nc2ccc(Cl)cc2C(c2ccccc2Cl)=NC1O (centres unmarked) [lorazepam]
antidepressant effect ([1]; patient with depression, 1 mg lorazepam prior to ketamine, several treatments): experienced an antidepressant effect

CC[C@H](C)[C@@H]1NC(=O)[C@H](Cc2ccc(O)cc2)NC(=O)[C@@H](N)CSSC[C@@H](C(=O)N2CCC[C@H]2C(=O)N[C@@H](CC(C)C)C(=O)NCC(N)=O)NC(=O)[C@H](CC(N)=O)NC(=O)[C@H](CCC(N)=O)NC1=O [oxytocin]
severity of depression and suicidal ideation ([4]; same patient, oxytocin 40 IU intranasally 30 minutes before ketamine in same dose range): reduced severity of depression and suicidal ideation
